# In the supplement of paper PMC10307832:
# Columns and labels:
# Assay in all cases: relative viability (nuclei count vs DMSO), 5 days (fraction); higher = more cells survive
# [1] = compound: Cc1ccc2nc(NCCN)c3ncc(C)n3c2c1 + CC(=O)Nc1cccc(-n2c(=O)n(C3CC3)c(=O)c3c(Nc4ccc(I)cc4F)n(C)c(=O)c(C)c32)c1 [Trametinib] (partner 0.02 µM)
# Procedure, shortened: (§1)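 Relative viability was taken as the ratio of nuclei in treated wells to nuclei in vehicle wells. Lung cancer cell lines in 1536-well plates received compounds by pin tool one day after seeding, either one drug alone or a fixed anchor-drug dose plus five library-drug doses (not always all listed) in √10 steps. Nuclei were counted on 4× images after 5 days of treatment, and values are medians of duplicate plates.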
# [2] = compound: Cc1ccc2nc(NCCN)c3ncc(C)n3c2c1 + N=C(N)NC(=N)NCCc1ccccc1 [Phenformin] (partner 250 µM)
# Procedure, shortened: as §1
# Salubrinal + Vorinostat = compound: O=C(/C=C/c1ccccc1)NC(NC(=S)Nc1cccc2cccnc12)C(Cl)(Cl)Cl [Salubrinal] + O=C(CCCCCCC(=O)Nc1ccccc1)NO [Vorinostat] (partner 1 µM)
# Procedure, shortened: as §1
# [3] = compound: Cc1ccc2nc(NCCN)c3ncc(C)n3c2c1 + Cc1nc(NC(=O)N2CCC[C@H]2C(N)=O)sc1-c1ccnc(C(C)(C)C(F)(F)F)c1 [Alpelisib] (partner 2 µM)
# Procedure, shortened: as §1
Cell Line,relative viability ([1]; first compound 0.04 µM),relative viability ([1]; first compound 0.1265 µM),relative viability ([1]; first compound 0.4 µM),relative viability ([1]; first compound 1.265 µM),relative viability ([1]; first compound 4 µM),relative viability ([2]; first compound 0.04 µM),relative viability ([2]; first compound 0.1265 µM),relative viability ([2]; first compound 0.4 µM),relative viability ([2]; first compound 1.265 µM),relative viability ([2]; first compound 4 µM),relative viability (Salubrinal + Vorinostat; first compound 0.08 µM),relative viability (Salubrinal + Vorinostat; first compound 0.253 µM),relative viability (Salubrinal + Vorinostat; first compound 0.8 µM),relative viability (Salubrinal + Vorinostat; first compound 2.53 µM),relative viability (Salubrinal + Vorinostat; first compound 8 µM),relative viability ([3]; first compound 0.04 µM),relative viability ([3]; first compound 0.1265 µM),relative viability ([3]; first compound 0.4 µM),relative viability ([3]; first compound 1.265 µM),relative viability ([3]; first compound 4 µM)
LOU-NH91,0.819,0.792,0.794,0.787,0.775,0.729,0.693,0.756,0.654,0.664,0.933,0.925,1.08,0.903,0.841,0.739,0.736,0.735,0.674,0.696
LU99A,0.501,0.604,0.541,0.618,0.577,0.797,0.78,0.673,0.892,0.798,0.621,0.481,0.578,0.546,0.513,0.59,0.539,0.576,0.609,0.464
LXF-289,0.669,0.629,0.696,0.645,0.663,0.528,0.546,0.543,0.486,0.524,0.897,0.707,0.908,0.873,0.76,1.1,1.01,0.984,1.06,1.03
NCI-H522,0.641,0.753,0.791,0.719,0.684,0.695,0.708,0.622,0.689,0.543,1.03,0.944,0.972,0.889,0.844,,,,,
NCI-H1299,,,,,,,,,,,,,,,,1.03,1.1,1.05,1.08,0.993
NCI-H1563,,,,,,0.652,0.684,0.662,0.65,0.654,,,,,,0.902,0.962,1.07,1.13,0.905
NCI-H1623,,,,,,0.586,0.618,0.657,0.684,0.567,,,,,,,,,,
NCI-H1648,0.434,0.433,0.434,0.419,0.358,,,,,,0.431,0.419,0.649,0.345,0.242,,,,,
NCI-H1650,0.57,0.499,0.739,0.494,0.427,0.442,0.488,0.455,0.414,0.464,0.76,0.592,0.672,0.456,0.648,,,,,
NCI-H1703,,,,,,,,,,,,,,,,0.472,0.36,0.275,0.388,0.348
NCI-H1792,0.645,0.397,,0.405,0.488,0.308,0.436,,0.411,0.358,,,,,,0.696,0.678,0.615,0.527,0.661
NCI-H2342,0.822,0.805,0.821,0.917,0.849,0.592,0.816,0.636,0.581,0.559,0.666,0.631,0.715,0.668,0.768,,,,,
SW 900,,0.901,0.827,0.749,0.621,0.594,0.6,,0.674,0.849,0.735,0.379,0.731,0.505,0.804,,,,,
